Results published in the NIST ThermoML archive (doi:10.1021/je700261b).
± gives the expanded uncertainty stated by the source.

Experiment: xn = mol fraction of the nth substance listed
Details: Liquid

CCCCO [butan-1-ol] + O=C=O
Details	mass density [kg/m3]
313.16 K, 11059 kPa, x2 = 0.5965	838.66 ± 0.51
313.16 K, 11082 kPa, x2 = 0.8663	813.86 ± 0.57
313.16 K, 12061 kPa, x2 = 0.8663	821.6 ± 0.57
313.16 K, 12075 kPa, x2 = 0.5965	840.6 ± 0.51
313.16 K, 13043 kPa, x2 = 0.8663	828.71 ± 0.57
313.16 K, 13069 kPa, x2 = 0.5965	842.49 ± 0.52
313.16 K, 14076 kPa, x2 = 0.8663	835.52 ± 0.56
313.16 K, 14098 kPa, x2 = 0.5965	844.39 ± 0.52
313.16 K, 15059 kPa, x2 = 0.5965	846.11 ± 0.53
313.16 K, 15061 kPa, x2 = 0.8663	841.57 ± 0.56
313.16 K, 16037 kPa, x2 = 0.5965	847.81 ± 0.53
313.16 K, 16043 kPa, x2 = 0.8663	847.15 ± 0.56
313.16 K, 17032 kPa, x2 = 0.5965	849.52 ± 0.53
313.16 K, 17052 kPa, x2 = 0.8663	852.59 ± 0.56
313.16 K, 18048 kPa, x2 = 0.5965	851.21 ± 0.54
313.16 K, 18056 kPa, x2 = 0.8663	857.69 ± 0.55
313.16 K, 19039 kPa, x2 = 0.8663	862.42 ± 0.55
313.16 K, 19055 kPa, x2 = 0.5965	852.88 ± 0.54
313.16 K, 20027 kPa, x2 = 0.8663	866.99 ± 0.55
313.16 K, 20044 kPa, x2 = 0.5965	854.46 ± 0.55
313.16 K, 21042 kPa, x2 = 0.5965	856.04 ± 0.55
313.16 K, 21068 kPa, x2 = 0.8663	871.52 ± 0.55
313.16 K, 22034 kPa, x2 = 0.8663	875.6 ± 0.55
313.16 K, 22053 kPa, x2 = 0.5965	857.62 ± 0.56
313.16 K, 23031 kPa, x2 = 0.5965	859.12 ± 0.56
313.16 K, 23061 kPa, x2 = 0.8663	879.74 ± 0.55
313.16 K, 24038 kPa, x2 = 0.5965	860.62 ± 0.57
313.16 K, 24054 kPa, x2 = 0.8663	883.63 ± 0.55
313.16 K, 25015 kPa, x2 = 0.8663	887.21 ± 0.56
313.16 K, 25036 kPa, x2 = 0.5965	862.12 ± 0.57
323.05 K, 1017 kPa, x2 = 0.0251	789.88 ± 0.46
323.05 K, 2015 kPa, x2 = 0.0251	790.73 ± 0.47
323.05 K, 3003 kPa, x2 = 0.0251	791.59 ± 0.48
323.05 K, 4007 kPa, x2 = 0.0251	792.48 ± 0.48
323.05 K, 5026 kPa, x2 = 0.0251	793.33 ± 0.49
323.05 K, 5975 kPa, x2 = 0.0251	794.14 ± 0.5
323.05 K, 7085 kPa, x2 = 0.0251	795.08 ± 0.51
323.05 K, 7991 kPa, x2 = 0.0251	795.85 ± 0.52
323.05 K, 9003 kPa, x2 = 0.0251	796.68 ± 0.52
323.05 K, 10032 kPa, x2 = 0.0251	797.56 ± 0.53
323.05 K, 10996 kPa, x2 = 0.0251	798.32 ± 0.54
323.05 K, 11029 kPa, x2 = 0.9698	630.03 ± 1.2
323.05 K, 12005 kPa, x2 = 0.9698	671.01 ± 1.1
323.05 K, 12028 kPa, x2 = 0.0251	799.15 ± 0.55
323.05 K, 12996 kPa, x2 = 0.9698	700.08 ± 0.96
323.05 K, 13030 kPa, x2 = 0.0251	799.93 ± 0.56
323.05 K, 14024 kPa, x2 = 0.9698	723.36 ± 0.87
323.05 K, 14030 kPa, x2 = 0.0251	800.72 ± 0.57
323.05 K, 15018 kPa, x2 = 0.0251	801.45 ± 0.58
323.05 K, 15024 kPa, x2 = 0.9698	741.89 ± 0.82
323.05 K, 16009 kPa, x2 = 0.9698	757.4 ± 0.78
323.05 K, 16017 kPa, x2 = 0.0251	802.24 ± 0.59
323.05 K, 17001 kPa, x2 = 0.9698	771.14 ± 0.76
323.05 K, 17014 kPa, x2 = 0.0251	802.97 ± 0.59
323.05 K, 18016 kPa, x2 = 0.9698	783.62 ± 0.74
323.05 K, 18025 kPa, x2 = 0.0251	803.71 ± 0.6
323.05 K, 19020 kPa, x2 = 0.9698	794.82 ± 0.72
323.05 K, 19034 kPa, x2 = 0.0251	804.49 ± 0.61
323.05 K, 20048 kPa, x2 = 0.9698	805.21 ± 0.7
323.05 K, 20052 kPa, x2 = 0.0251	805.21 ± 0.62
323.05 K, 21014 kPa, x2 = 0.0251	805.95 ± 0.63
323.05 K, 21055 kPa, x2 = 0.9698	814.54 ± 0.69
323.05 K, 22017 kPa, x2 = 0.9698	822.92 ± 0.68
323.05 K, 22027 kPa, x2 = 0.0251	806.68 ± 0.64
323.05 K, 23002 kPa, x2 = 0.0251	807.38 ± 0.65
323.05 K, 23087 kPa, x2 = 0.9698	831.58 ± 0.67
323.05 K, 24035 kPa, x2 = 0.0251	808.13 ± 0.66
323.05 K, 24055 kPa, x2 = 0.9698	838.92 ± 0.66
323.05 K, 25023 kPa, x2 = 0.0251	808.84 ± 0.67
323.07 K, 1981 kPa, x2 = 0.0857	794.04 ± 0.47
323.07 K, 3013 kPa, x2 = 0.0857	795.05 ± 0.47
323.07 K, 4009 kPa, x2 = 0.0857	795.99 ± 0.48
323.07 K, 5021 kPa, x2 = 0.0857	796.91 ± 0.49
323.07 K, 6010 kPa, x2 = 0.0857	797.83 ± 0.5
323.07 K, 6995 kPa, x2 = 0.0857	798.74 ± 0.5
323.07 K, 7985 kPa, x2 = 0.0857	799.59 ± 0.51
323.07 K, 9047 kPa, x2 = 0.0857	800.55 ± 0.52
323.07 K, 10028 kPa, x2 = 0.0857	801.4 ± 0.53
323.07 K, 11003 kPa, x2 = 0.0857	802.22 ± 0.54
323.07 K, 12005 kPa, x2 = 0.0857	803.07 ± 0.55
323.07 K, 12995 kPa, x2 = 0.0857	803.91 ± 0.55
323.07 K, 14273 kPa, x2 = 0.0857	805.01 ± 0.56
323.07 K, 15019 kPa, x2 = 0.0857	805.58 ± 0.57
323.07 K, 15998 kPa, x2 = 0.0857	806.41 ± 0.58
